IC50 data for 45 compounds are collected here from patent US20190374526A1, “Substituted Heterocyclic Compounds as Inhibitors of PRDM9” (Merck Sharp & Dohme Corp., priority 2018, published 2019).

The assay has as its target T1, hPRDM9 (amino acids 195-385) (Homo sapiens, UniProt Q9NQV7).
T1 construct: 1.25 nM hPRDM9 (amino acids 195-385)
T1 sequence (Q9NQV7 195-385): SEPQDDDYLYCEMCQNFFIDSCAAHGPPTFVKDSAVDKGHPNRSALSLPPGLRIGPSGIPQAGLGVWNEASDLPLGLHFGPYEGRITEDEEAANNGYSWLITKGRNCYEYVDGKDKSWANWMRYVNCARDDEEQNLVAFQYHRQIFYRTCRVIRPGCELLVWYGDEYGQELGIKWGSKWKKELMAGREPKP
Nature of the assay: PRDM9 biochemical assay (radiometric, 3[H] methyl transfer from SAM to biotinylated histone H3 peptide). As to conditions: 1 nM hPRDM9, 1 μM biotinylated H3(1-25)K4 peptide, 5 μM 3[H]-SAM, 55 μM un-labeled SAM, 25° C., 30 minutes. The essentials:
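Radiometric assay of ³H-methyl transfer to biotinylated H3(1-25)K4 peptide, with final concentrations 1 nM hPRDM9 (195-385), 1 μM peptide, 5 μM ³H-SAM and 55 μM unlabeled SAM. Run in pH 8.5 Tris buffer for 30 min at 25° C, quenched with guanidine-HCl and captured on streptavidin Flashplates. IC50 from four-parameter fit relative to 0.5% DMSO controls.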
As for `CCc1cc(N2CC3(CCCN(c4nc(-c5cc(Cl)cc(Cl)c5)no4)C3)C2)ccn1` [Compound 207], the IC50 – broadly, the concentration needed to halve the response being measured – was determined as 0.4 µM.
Under `Cc1cc(N2CCC3C(Nc4nc(-c5cc(Cl)cc(Cl)c5)no4)CCC32)ccn1` (mixture of isomers) [Compound 27] stands 36.4 µM; under `Cc1cc(N2CC3(CCCN(c4nc(-c5cc(Cl)cc(Cl)c5)no4)C3)C2)cc(C)n1` [Compound 205], 0.16 µM; under `OCc1ncc(N2CC3(CCCN(c4nc(-c5cc(Cl)cc(Cl)c5)no4)C3)C2)cn1` [Compound 200], 19 µM.
Under `Cc1cc(N2CCC3CN(c4nc(-c5cc(Cl)cc(Cl)c5)no4)CC3C2)ccn1` (stereo not drawn) [Compound 219] stands 4.3 µM; under `Cc1cc(N2CC3(CCCN(CC(C)C(=O)c4cc(Cl)cc(Cl)c4)C3)C2)ccn1` (stereo not drawn) [Compound 127, 1-(3,5-dichlorophenyl)-2-methyl-3-(2-(2-methylpyridin-4-yl)-2,6-diazaspiro[3.5]nonan-6-yl)propan-1-one], 26.9 µM; under `Cc1cc(NC2CCC3CN(c4nc(-c5cc(Cl)cc(Cl)c5)no4)CC32)ccn1` (stereo not drawn) [Compound 177], 8.64 µM.
For the compound `Cc1cc(NCC2(C)CCN(c3nc(-c4cc(Cl)cc(Cl)c4)no3)CC2)ccn1` [Compound 64], half-maximal inhibition (IC50) required 3.58 µM.
As to `Cc1cc(N2CC3(CCCN(c4nc(C5CC5)no4)C3)C2)ccn1` [Compound 146], the IC50 was ≥ 50 µM.
As for `Cc1cc(N2CC3(CCCN(c4cc(-c5ccc(F)c(C(F)(F)F)c5)n[nH]4)C3)C2)ccn1` [Compound 135, 6-(3-(4-fluoro-3-(trifluoromethyl)phenyl)-1H-pyrazol-5-yl)-2-(2-methylpyridin-4-yl)-2,6-diazaspiro[3.5]nonane], the figure is 21.1 µM; as for `N#Cc1ccnc(N2CC3(CCCN(c4nc(-c5cc(Cl)cc(Cl)c5)no4)C3)C2)c1` [Compound 197], 2 µM; as for `Cc1cc(N2CC3(CCCN(c4cc(-c5cc(F)cc(Cl)c5)n[nH]4)C3)C2)ccn1` [Compound 136, 6-(3-(3-chloro-5-fluorophenyl)-1H-pyrazol-5-yl)-2-(2-methylpyridin-4-yl)-2,6-diazaspiro[3.5]nonane], 16.5 µM.
`COc1cc(OC)cc(-c2noc(N3CCOC4(CN(c5ccnc(C)c5)C4)C3)n2)c1` [Compound 139] showed an IC50 of 0.393 µM.
Take `Cc1cc(N2CC3(CC(NC(=O)Nc4cc(Cl)cc(Cl)c4)C3)C2)ccn1` [Compound 239, 1-(3,5-dichlorophenyl)-3-(2-(2-methylpyridin-4-yl)-2-azaspiro[3.3]heptan-6-yl)urea]: the IC50 was ≥ 50 µM.
As for `O=c1cc(N2CC3(CCCN(c4nc(-c5cc(Cl)cc(Cl)c5)no4)C3)C2)cc[nH]1` [Compound 208], the figure is 5 µM; as for `COc1cc(OC)cc(-c2noc(N3CC(c4ccccc4)OC4(CCN(c5ccnc(C)c5)CC4)C3)n2)c1` (stereo not drawn) [Compound 181], 2.14 µM.
As for `Cc1cc(N2CC3CN(c4nc(-c5cc(Cl)cc(Cl)c5)no4)CC3C2)ccn1` (stereo not drawn) [Compound 45], the figure is 0.34 µM.
Under `CCN1CCN(c2nc(-c3cc(OC)cc(OC)c3)no2)CC12CCN(c1ccnc(C)c1)CC2` [Compound 242, 3-(3,5-dimethoxyphenyl)-5-(1-ethyl-9-(2-methylpyridin-4-yl)-1,4,9-triazaspiro[5.5]undecan-4-yl)-1,2,4-oxadiazole] stands 0.155 µM; under `Cc1cc(N2CC[C@H](Nc3nc(-c4cc(Cl)cc(Cl)c4)no3)C[C@@H]2C)ccn1` [Compound 217], 29.2 µM.
As to `Cc1cc(N2CCC3(CCCN(c4nc(-c5cc(Cl)cc(Cl)c5)no4)C3)C2)ccn1` (stereo not drawn) [Compound 223], half-maximal inhibition (IC50) was put at 12.1 µM.
In turn, `Cc1cc(N2CCC3(CCC(=O)N(c4nc(-c5cc(Cl)cc(Cl)c5)no4)C3)CC2)ccn1` [Compound 28] returned an IC50 of 0.0225 µM. Against the preceding compound, the IC50 is about 540-fold lower.
As for `COc1cc(OC)cc(-c2noc(N3CCCC4(CCN(c5ccncc5OC)CC4)C3)n2)c1` [Compound 237], the figure is 7.3 µM; as for `Cc1cc(N2CCC3(CCCC3Nc3nc(-c4cc(Cl)cc(Cl)c4)no3)CC2)ccn1` (stereo not drawn) [Compound 33], 1.52 µM; as for `Cc1cc(N2CCC3(CC2)CC3Nc2nc(-c3cc(Cl)cc(Cl)c3)no2)ccn1` (stereo not drawn) [Compound 34], 2.2 µM.
Compound `CCC1(CNc2nc(-c3cc(Cl)cc(Cl)c3)no2)CCN(c2ccnc(C)c2)CC1` [Compound 32] had an IC50 of 2.21 µM.
In turn, `Cc1cc(N2CC3(CCCN(c4ccn(-c5cc(Cl)cc(Cl)c5)n4)C3)C2)ccn1` [Compound 126, 6-(1-(3,5-dichlorophenyl)-1H-pyrazol-3-yl)-2-(2-methylpyridin-4-yl)-2,6-diazaspiro[3.5]nonane] registered an IC50 of 11.1 µM. This IC50 lies about 5-fold higher than the previous one.
Under `Cc1cc(NC2CCC3CN(c4nc(-c5cc(Cl)cc(Cl)c5)no4)CC3C2)ccn1` (stereo not drawn) [Compound 66] stands 0.47 µM.
`Cc1cc(NCCC2CN(c3nc(-c4cc(Cl)cc(Cl)c4)no3)c3ccccc32)ccn1` (stereo not drawn) [Compound 175] gave an IC50 of 3.81 µM.
As for `Cc1cc(N2CCC3CN(c4nc(-c5cc(Cl)cc(Cl)c5)no4)CCC32)ccn1` (stereo not drawn) [Compound 71], the figure is 27.7 µM; as for `COc1cccc(-c2noc(N3CCCC4(CN(c5ccnc(C)c5)C4)C3)n2)c1` [Compound 142], 0.203 µM; as for `Cc1cc(N2CC3(CCCN(c4nc(-c5cccc(Cl)c5)no4)C3)C2)ccn1` [Compound 147], 0.263 µM.
With `COC(=O)c1cccc(-c2cc(N3CCCC4(CN(c5ccnc(C)c5)C4)C3)on2)c1` [Compound 129, methyl 3-(5-(2-(2-methylpyridin-4-yl)-2,6-diazaspiro[3.5]nonan-6-yl)isoxazol-3-yl)benzoate], the IC50 amounted to 19.1 µM.
As for `COc1cc(OC)cc(-c2noc(N3CCN(CCO)C4(CCN(c5ccnc(C)c5)CC4)C3)n2)c1` [Compound 98], the figure is 0.095 µM.
As for `COc1cc(OC)cc(-c2noc(N3CCN(C)C4(CCN(c5ccnc(C)c5)CC4)C3)n2)c1` [Compound 161], the figure is 0.049 µM.
As for `Cc1cc(N2CC3CC(Nc4nc(-c5cc(Cl)cc(Cl)c5)no4)CC3C2)ccn1` (stereo not drawn) [Compound 24], the figure is 5.34 µM; as for `Cc1cc(N2CC3(CCCN(c4nc(-c5ccc(Cl)cc5)no4)C3)C2)ccn1` [Compound 144], 42.3 µM; as for `Cc1cc(N2CC3(CCCN(c4cc(-c5cccc(F)c5F)n[nH]4)C3)C2)ccn1` [Compound 128, 6-(3-(2,3-difluorophenyl)-1H-pyrazol-5-yl)-2-(2-methylpyridin-4-yl)-2,6-diazaspiro[3.5]nonane], 23.7 µM.
Compound `Cc1cc(N2CC3(CCCN(c4onc(-c5cc(Cl)cc(Cl)c5)c4-c4ccoc4)C3)C2)ccn1` [Compound 122, 3-(3,5-dichlorophenyl)-4-(furan-3-yl)-5-(2-(2-methylpyridin-4-yl)-2,6-diazaspiro[3.5]nonan-6-yl)isoxazole] yielded an IC50 of 30.6 µM.
As to `Cc1cc(NC2CC23CCN(c2nc(-c4cc(Cl)cc(Cl)c4)no2)C3)ccn1` (stereo not drawn) [Compound 157], half-maximal inhibition (IC50) was put at 31 µM.
The compound `Cc1cc(N2CCC(CN(C)c3nc(-c4cc(Cl)cc(Cl)c4)no3)CC2)ccn1` [Compound 38] returned a half-maximal inhibitory concentration (IC50) of 0.16 µM.
As to `Cc1cc(N2CCC3(CC2)CCN(c2nc(-c4cc(Cl)cc(Cl)c4)no2)CC3)ccn1` [Compound 15], the half-inhibitory concentration (IC50) turned out to be 31.6 µM.
On to `COc1cc(OC)cc(-c2noc(N3CCN(c4ccccc4)C4(CCN(c5ccnc(C)c5)CC4)C3)n2)c1` [Compound 100], for which the IC50 came out at 0.14 µM.
Turning to `Cc1cc(N2CCC3(CCCN3c3nc(-c4cc(Cl)cc(Cl)c4)no3)C2)ccn1` (stereo not drawn) [Compound 41], the IC50 was found to be 3.92 µM.
As for `COc1cc(OC)cc(-c2noc(N3CCN(C)C4(CCN(c5ccnc6ccccc56)CC4)C3)n2)c1` [Compound 102], the figure is 4.4 µM; as for `Cc1cc(NC2CCCN(c3nc(-c4cc(Cl)cc(Cl)c4)no3)CC2)ccn1` (stereo not drawn) [Compound 74], 1.13 µM.
